Paper PMC10218941, “Design, Synthesis, Antiproliferative Actions, and DFT Studies of New Bis–Pyrazoline Derivatives as Dual EGFR/BRAF^V600E Inhibitors” (International Journal of Molecular Sciences, 2023)
“And” between values parts separate entries of the source, which are not always exact repeats. Identical values can stand only once. Like-named read-outs stand apart in the source and are kept apart here.

Experiments:
[1] = test system: HT-29 (colon cancer cell line); experiment: Antiproliferative assay (MTT), HT-29; format: cell-based; conditions: Homo sapiens, read-out: Antiproliferative Activity IC50 ± SEM (µM) HT-29
Procedure: (§1) The antiproliferative activity of pyrazoline hybrids 8–17 was tested against the four human cancer cell lines Panc-1 (pancreatic cancer cell line), MCF-7 (breast cancer cell line), HT-29 (colon cancer cell line), and A-549 (lung cancer cell line) using the MTT assay and doxorubicin as the reference drug. See Appendix SA (Supplementary File). […]
(§2) 4.2.1.2. Assay for antiproliferative effect
(§3) To explore the antiproliferative potential of compounds propidium iodide fluorescence assay was performed using different cell lines such as Panc -1 (pancreas cancer cell line), MCF-7 (breast cancer cell line), HT-29 (colon cancer cell line) and A-549 (epithelial cancer cell line), respectively. To calculate the total nuclear DNA, a fluorescent dye (propidium iodide, PI) is used which can attach to the DNA, thus offering a quick and precise technique. PI cannot pass through the cell membrane and its signal intensity can be considered as directly proportional to quantity of cellular DNA. Cells whose cell membranes are damaged or have changed permeability are counted as dead ones. The assay was performed by seeding the cells of different cell lines at a density of 3000-7500 cells/well (in200μl medium) in culture plates followed by incubation for 24h at 37 °C in humidified 5%CO2/95% air atmospheric conditions. The medium was removed; the compounds were added to the plates at 10 μM concentrations (in 0.1% DMSO) in triplicates, followed by incubation for 48h. DMSO (0.1%) was used as control. After incubation, medium was removed followed by the addition of PI (25 μl, 50μg/mL in water/medium) to each well of the plates. At - 80 °C, the plates were allowed to freeze for 24 h, followed by thawing at 25 °C. A fluorometer (Polar-Star BMG Tech) was used to record the readings at excitation and emission wavelengths of 530 and 620 nm for each well. The percentage cytotoxicity of compounds was calculated using […]
(§4) Where ATC= Absorbance of treated cells and AC= Absorbance of control. Erlotinib was used as positive control in the assay. […]

[2] = test system: Panc-1 (pancreatic cancer cell line); experiment: Antiproliferative assay (MTT), Panc-1; format: cell-based; conditions: Homo sapiens, read-out: Antiproliferative Activity IC50 ± SEM (µM) Panc-1
Procedure: as §1, §2, §3, §4

[3] = test system: MCF-7 (breast cancer cell line); experiment: Antiproliferative assay (MTT), MCF-7; format: cell-based; conditions: Homo sapiens, MCF7; read-out: Antiproliferative Activity IC50 ± SEM (µM) MCF-7
Procedure: (§5) The antiproliferative activity of pyrazoline hybrids 8–17 was tested against the four human cancer cell lines Panc-1 (pancreatic cancer cell line), MCF-7 (breast cancer cell line), HT-29 (colon cancer cell line), and A-549 (lung cancer cell line) using the MTT assay and doxorubicin as the reference drug. See Appendix SA (Supplementary File).
(§6) 4.2. Biological evaluation
(§7) 4.2.1. Cytotoxic activity using MTT Assay and evaluation of IC50 […]
(§8) 96-well flat-bottomed cell culture plates were used to seed the cells at a […]
(§9) of 10^4 cells mL-1. The medium was aspirated from all the wells of culture plates after 24 h followed by the addition of synthesized compounds (in 200 μL medium to yield a final concentration of 0.1% (v/v) dimethyl sulfoxide) into individual wells of the plates. Four wells were designated to a single compound. The plates were allowed to incubate at 37°C for 96 h. Afterwards, the medium was aspirated and 3 -[4,5-dimethylthiazol-2-yl]-2,5-diphenyltetrazolium bromide (MTT) (0.4 mg/mL) in medium was added to each well and subsequent ly incubated for 3 h. The medium was aspirated and 150 μL dimethyl sulfoxide (DMSO) was added to each well. The plates were vortexed followed by the measurement of absorbance at 540 nm on a microplate reader. The results were presented as inhibition (%) of proliferation in contrast to controls comprising 0.1% 4.2.1.2. Assay for antiproliferative effect
as §3, §4

[4] = Cell viability assay (MTT) on normal mammary epithelial cells; format: cell-based; conditions: human, MCF-10A normal mammary gland epithelial cells, MCF-10A cells, four days
Procedure: To test the viability of new substances, the epithelial (MCF-10A) cell line of the normal human mammary gland was used. Compounds 8–17 were incubated for four days on MCF-10A cells before being tested for viability using the MTT assay. According to Table 1, none of the substances tested were cytotoxic, and cell viability at 50 µM was greater than 87% for the compounds tested.
The normal human mammary gland epithelial (MCF-10A) cell line was used to test the viability of new compounds [46, 47]. See Appendix SA (Supplementary File).
as §6
4.2.1. Cytotoxic activity using MTT Assay and evaluation of IC50
MTT assay was performed to investigate the effect of the synthesized compounds on mammary epithelial cells (MCF-10A). The cells were propagated in medium consisting of Ham's F-12 medium/ Dulbecco's modified Eagle's medium (DMEM) (1:1) supplemented with 10% foetal calf serum, 2 mM glutamine, insulin (10 μg/mL), hydrocortisone (500 ng/mL) and epidermal growth factor (20 ng/mL). Trypsin ethylenediamine tetra acetic acid (EDTA) was used to passage the cells after every 2-3 days. 96-well flat-bottomed cell culture plates were used to seed the cells at a […]
as §9, with “The results were presented as inhibition (%) of proliferation in contrast to controls comprising 0.1% 4.2.1.2. Assay for antiproliferative effect” left out

[5] = test system: A-549 (lung cancer cell line); experiment: Antiproliferative assay (MTT), A-549; format: cell-based; conditions: Homo sapiens, A549; read-out: Antiproliferative Activity IC50 ± SEM (µM) A-549
Procedure: as §5, §6, §7, §8, §9, §3, §4

[6] = test system: four human cancer cell lines (A-549, MCF-7, Panc-1, HT-29); experiment: Antiproliferative assay, mean of four cancer cell lines (GI50); format: cell-based; conditions: mean over A-549, MCF-7, Panc-1, HT-29
[7] = target: BRAF^V600E; experiment: BRAF^V600E inhibitory assay
Target sequence in this assay (P28028 whole entry V585E): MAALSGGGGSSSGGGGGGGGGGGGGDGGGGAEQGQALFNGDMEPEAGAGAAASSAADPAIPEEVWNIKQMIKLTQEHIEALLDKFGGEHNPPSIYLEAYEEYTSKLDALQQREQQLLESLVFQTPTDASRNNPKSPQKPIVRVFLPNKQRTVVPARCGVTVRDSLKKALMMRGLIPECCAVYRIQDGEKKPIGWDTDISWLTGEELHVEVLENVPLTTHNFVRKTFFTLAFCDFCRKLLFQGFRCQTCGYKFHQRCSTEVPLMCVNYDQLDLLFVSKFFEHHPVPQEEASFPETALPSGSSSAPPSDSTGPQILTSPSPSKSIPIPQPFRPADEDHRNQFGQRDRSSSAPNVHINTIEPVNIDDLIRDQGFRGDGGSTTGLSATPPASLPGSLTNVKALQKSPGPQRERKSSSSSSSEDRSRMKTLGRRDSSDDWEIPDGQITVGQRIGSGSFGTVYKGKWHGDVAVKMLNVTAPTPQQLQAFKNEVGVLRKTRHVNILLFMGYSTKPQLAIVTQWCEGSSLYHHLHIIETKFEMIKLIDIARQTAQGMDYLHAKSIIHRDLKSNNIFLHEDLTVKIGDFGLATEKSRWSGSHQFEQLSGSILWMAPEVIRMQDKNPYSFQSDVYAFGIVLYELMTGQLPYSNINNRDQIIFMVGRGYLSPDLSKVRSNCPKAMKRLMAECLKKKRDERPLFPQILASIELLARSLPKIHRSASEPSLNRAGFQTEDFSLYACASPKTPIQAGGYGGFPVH
Procedure: V600E mutant BRAF kinase assay was performed to investigate the activity of tested compounds against BRAF. Mouse full-length GST-tagged BRAFV600E (7.5 ng, Invitrogen, PV3849) was pre-incubated with drug (1 µL) and assay dilution buffer (4 µL) for 60 min at 25 °C. In assay dilution buffer, a solution (5 µL) containing MgCl2 (30 mM), ATP (200 µM), recombinant human full length (200 ng) and N-terminal His-tagged MEK1 (Invitrogen) was added to start the assay, subsequent to incubation for 25 min at 25 °C. The assay was stopped using 5X protein denaturing buffer (LDS) solution (5 µL). To further denature the protein, heat (70° C) was applied for 5 min.
10 µL of each reaction was loaded into the precast plates and electrophoresis was allowed to proceed. After completion of electrophoresis, the front part of the precast gel plate (holding hot ATP) was cut and afterwards cast-off. The dried gel was developed using a phosphor screen.
served as positive control.

[8] = target: T1, EGFR (Homo sapiens, UniProt P00533); experiment: EGFR inhibitory assay; format: biochemical; conditions: read-out: EGFR Inhibition IC50 ± SEM
T1 construct: 645–1186); His6 (N); made in house; host or cells: Sf-9 insect cells (baculovirus; pBlueBacHis2B / pFASTBacHTc
Procedure: 4.2.2. EGFR inhibitory assay
Baculoviral expression vectors including pBlueBacHis2B and pFASTBacHTc were used […]
(1 picture or pasted object on this page, not shown here)
5ʹ upstream to the EGFR sequence comprised a sequence that encoded (His)6. Sf-9 cells were infected for 72h for protein expression. The pellets of Sf-9 cells were solubilized in a buffer containing sodium vanadate (100 μM), aprotinin (10 μg/mL), triton (1%), HEPES […]
centrifugation for 20 min.
Histidine-linked proteins were first eluted with 250 and then […]
enhancement solution was added to each well and the signal was recorded at excitation and […]
The autophosphorylation percentage inhibition by compounds was calculated using the following equation: […]

[9] = target: T1, EGFR; parameters: method as in PMID 35424523; conditions: cited from earlier work
[10] = test system: BRAF^V600E; parameters: method as in PMID 35424523; conditions: cited from earlier work

T1 sequence (P00533 669-1210): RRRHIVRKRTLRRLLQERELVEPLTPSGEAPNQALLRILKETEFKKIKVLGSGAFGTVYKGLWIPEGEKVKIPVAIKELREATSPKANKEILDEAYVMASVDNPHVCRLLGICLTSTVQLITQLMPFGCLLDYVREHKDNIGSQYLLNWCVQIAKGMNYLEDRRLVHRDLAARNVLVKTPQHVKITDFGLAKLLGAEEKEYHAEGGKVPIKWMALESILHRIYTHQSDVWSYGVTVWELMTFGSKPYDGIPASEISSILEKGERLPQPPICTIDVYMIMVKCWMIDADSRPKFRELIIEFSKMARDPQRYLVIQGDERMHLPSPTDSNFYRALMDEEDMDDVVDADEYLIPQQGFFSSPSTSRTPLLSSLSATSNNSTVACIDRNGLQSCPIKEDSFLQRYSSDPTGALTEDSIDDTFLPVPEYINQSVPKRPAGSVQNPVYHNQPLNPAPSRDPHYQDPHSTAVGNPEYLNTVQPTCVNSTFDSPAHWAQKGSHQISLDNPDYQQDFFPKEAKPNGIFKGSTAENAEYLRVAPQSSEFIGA

IC50 [1] [µM] | IC50 [2] [µM] | IC50 [3] [µM] | IC50 [5] [µM] | IC50 [6] [nM] | IC50 [7] [nM] | IC50 [8] [nM] | Compound | viability at 96 h, 50 µM [4] [%] | IC50 [9] | IC50 [10]
4.5 ± 0.4 | 4.6 ± 0.4 | 4.1 ± 0.4 | 4.3 ± 0.4 | 4400 |  |  | O=C(COc1ccc(C2=NNC(c3ccc(Cl)cc3)C2)cc1)Nc1ccc(C2=NNC(c3ccccc3)C2)cc1 (stereo not shown) [Compound 8, 2-(4-(5-(4-Chlorophenyl)-4,5-dihydro-1H-pyrazol-3-yl)phenoxy)-N-(4-(5-phenyl-4,5-dihydro-1H-pyrazol-3-yl)phenyl)acetamide] | 90 |  | 
2.5 ± 0.2 | 2.6 ± 0.2 | 1.9 ± 0.1 | 2.2 ± 0.2 | 2300 |  |  | COc1ccc(C2CC(c3ccc(NC(=O)COc4ccc(C5=NNC(c6ccc(Cl)cc6)C5)cc4)cc3)=NN2)cc1 (stereo not shown) [Compound 9, 2-(4-(5-(4-Chlorophenyl)-4,5-dihydro-1H-pyrazol-3-yl)phenoxy)-N-(4-(5-(4-methoxyphenyl)-4,5-dihydro-1H-pyrazol-3-yl)phenyl)acetamide] | 89 |  | 
3.1 ± 0.3 | 3.2 ± 0.3 | 2.9 ± 0.2 | 3.2 ± 0.3 | 3100 |  |  | O=C(COc1ccc(C2=NNC(c3ccc(Cl)cc3)C2)cc1)Nc1ccc(C2=NNC(c3ccc(Br)cc3)C2)cc1 (stereo not shown) [Compound 10, 2-(4-(5-(4-Chlorophenyl)-4,5-dihydro-1H-pyrazol-3-yl)phenoxy)-N-(4-(5-(4-bromophenyl)-4,5-dihydro-1H-pyrazol-3-yl)phenyl)acetamide] | 89 |  | 
3 ± 0.2 | 2.9 ± 0.2 | 2.7 ± 0.2 | 2.9 ± 0.2 | 2900 |  |  | O=C(COc1ccc(C2=NNC(c3ccc(Cl)cc3)C2)cc1)Nc1ccc(C2=NNC(c3ccc(Cl)cc3)C2)cc1 (stereo not shown) [Compound 11, 2-(4-(5-(4-Chlorophenyl)-4,5-dihydro-1H-pyrazol-3-yl)phenoxy)-N-(4-(5-(4-chlorophenyl)-4,5-dihydro-1H-pyrazol-3-yl)phenyl)acetamide] | 87 |  | 
5 ± 0.4 | 4.9 ± 0.4 | 4.6 ± 0.4 | 4.8 ± 0.4 | 4800 |  |  | COc1ccc(C2CC(c3ccc(OCC(=O)Nc4ccc(C5=NNC(c6ccc(C)cc6C)C5)cc4)cc3)=NN2)cc1 (stereo not shown) [Compound 13, 2-(4-(5-(4-Methoxyphenyl)-4,5-dihydro-1H-pyrazol-3-yl)phenoxy)-N-(4-(5-(2,4-dimethylphenyl)-4,5-dihydro-1H-pyrazol-3-yl)phenyl)acetamide] | 87 |  | 
2 ± 0.1 | 2 ± 0.1 | 1.6 ± 0.1 | 1.8 ± 0.1 | 1850 | 125 ± 10 | 104 ± 9 | COc1ccc(C2CC(c3ccc(OCC(=O)Nc4ccc(C5=NNC(c6ccc(Br)cc6)C5)cc4)cc3)=NN2)cc1 (stereo not shown) [Compound 14, 2-(4-(5-(4-Methoxyphenyl)-4,5-dihydro-1H-pyrazol-3-yl)phenoxy)-N-(4-(5-(4-bromophenyl)-4,5-dihydro-1H-pyrazol-3-yl)phenyl)acetamide] | 89 |  | 
1.7 ± 0.1 | 1.7 ± 0.1 | 1.2 ± 0.1 | 1.4 ± 0.1 | 1500 | 98 ± 8 | 93 ± 7 | COc1ccc(C2CC(c3ccc(OCC(=O)Nc4ccc(C5=NNC(c6ccc(Cl)cc6)C5)cc4)cc3)=NN2)cc1 (stereo not shown) [Compound 15, 2-(4-(5-(4-Methoxyphenyl)-4,5-dihydro-1H-pyrazol-3-yl)phenoxy)-N-(4-(5-(4-chlorophenyl)-4,5-dihydro-1H-pyrazol-3-yl)phenyl)acetamide] | 90 |  | 
3.9 ± 0.3 | 3.8 ± 0.3 | 3.5 ± 0.3 | 3.7 ± 0.3 | 3700 |  |  | COc1ccc(C2CC(c3ccc(OCC(=O)Nc4ccc(C5=NNC(c6ccc(F)cc6)C5)cc4)cc3)=NN2)cc1 (stereo not shown) [Compound 16, 2-(4-(5-(4-Methoxyphenyl)-4,5-dihydro-1H-pyrazol-3-yl)phenoxy)-N-(4-(5-(4-fluorophenyl)-4,5-dihydro-1H-pyrazol-3-yl)phenyl)acetamide] | 89 |  | 
1.2 ± 0.03 | 1 ± 0.02 | 0.9 ± 0.02 | 1.4 ± 0.08 | 1100 |  |  | COc1cccc2c1C(=O)c1c(O)c3c(c(O)c1C2=O)C[C@@](O)(C(=O)CO)C[C@@H]3O[C@H]1C[C@H](N)[C@H](O)[C@H](C)O1 [Doxorubicin, reference compound] |  |  | 
 |  |  |  |  |  |  | Cc1c(Nc2nc3c(C(=O)NN)c(N)sc3s2)c(=O)n(-c2ccccc2)n1C [II] |  | 20 nM | 88 nM and 90 nM
 |  |  |  |  |  |  | Cc1c(NC2=NC(=O)CS2)c(=O)n(-c2ccccc2)n1C [I] |  | 22 nM and 20 nM | 2030 nM
